# Source: patent US20040097439A9, “Isolated polynucleotides having a reduced or an increased content of epigenetic control motifs and uses thereof” (priority 1999, published 2004)
# Tested on: histone deacetylases
# Test: Relief of repressed LacZ transgenes in cleavage stage embryos by inhibitors of histone deacetylases
# Format: cell-based, mouse
# Details: for proportion of β-gal+ embryos after NaB treatment: repressed paternal transgene; for release from repression of LacZ transgenes in treated embryos: DCR6 and DCR7 2-cell embryos, NaB 2.5 mM or TSA 66 nM for 24 h
# Description: One-cell embryos from different lines, carrying a transgene of maternal (A) or paternal (B) origin were recovered at 24 hphCG and allowed to develop in the absence (control) or presence of sodium butyrate (NaB; 2.5 mM) or trichostatin A (TSA; 66 nM) for 24 h. Aphidicolin, an inhibitor of DNA polymerases was used alone (Aph; 2 μg/ml) or in combination with sodium butyrate (Aph+NaB).
# It is becoming more and more evident that at least part of the transcriptional repression dependent on methylated CpG islands is mediated by histone deacetylation. […] To test whether this mechanism could be responsible for the non-permissive transcriptional state established during gametogenesis and inherited by the embryo, cleavage stage embryos were treated with the deacetylase inhibitors, sodium butyrate (NaB) and the trichostatin A (TSA), two inhibitors of histone deacetylases (Yoshida et al., 1995).
SMILES,"proportion of β-gal+ embryos after NaB treatment (DCR1 line, 3% β-gal+ in untreated embryos)","proportion of β-gal+ embryos after NaB treatment (DCR3 line, 18% β-gal+ in untreated embryos)","proportion of β-gal+ embryos after NaB treatment (DCR5 line, 0% β-gal+ in untreated embryos)",release from repression of LacZ transgenes in treated embryos
"CCCC(=O)[O-].[Na+] [NaB, sodium butyrate]",70%,100%,10%,release from repression
"CC(/C=C/C(=O)NO)=C\[C@@H](C)C(=O)c1ccc(N(C)C)cc1 [TSA, trichostatin A]",,,,release from repression
